Laboratory results published in US10150734B2, “Solid forms of 2-(5-(3-fluorophenyl)-3-hydroxypicolinamido)acetic acid, compositions, and uses thereof” (Akebia Therapeutics, Inc., priority 2015, dated 2018).
≈ marks a conversion by molar mass, not a printed value. Entries after “also recorded” stand apart in the source; their conditions may differ. Where two headings read alike, the source gives them in different places.

Experiments:
[1] = Thermal stability experiments (solid stored at 60 °C; XRPD and HPLC); conditions: for XRPD, aliquot time point Day 1 / XRPD, aliquot time point Day 7: solid stored at 60.0 °C; for Chemical stability / degradation by HPLC after storage at 60 °C for seven days (in words) / Physical form / XRPD pattern change after storage at 60 °C for seven days (in words): solid
[2] = Aqueous solubility (slurry in deionized water at room temperature, filtrate by HPLC, solids by XRPD); conditions: for Solubility / Aqueous Solubility: deionized water; for Solubility: equilibrated with stirring, filtrate by HPLC; for Aqueous Solubility: standard curve linear range 0.008 to 0.2 mg/mL; for Aqueous Solubility: XRPD (1 day) of solids: solid form after 1 day slurry in water
Experimental: Approximately 14-25 mg of Forms A, D and G were transferred to 20 mL vials equipped with magnetic stir bars. 1.0 mL of deionized water was added and the resulting free flowing slurry was allowed to equilibrate over 1 and 7 days period with stirring at room temperature. […] The filtrates were analyzed by HPLC to determine solubility.

[3] = Dynamic vapour sorption (moisture sorption) with XRPD of post-DVS material; assay type: physicochemical; conditions: for XRPD analysis of the post-DVS material: after DVS and drying at 60 °C for 2 hours; for Hygroscopicity (in words): from DVS moisture sorption; for Moisture Sorption (hygroscopicity in words): from uptake at 60% and 90% RH
Experimental: Dynamic vapour sorption experiment was carried out by first holding the sample at 40% RH and 25.0° C. until an equilibrium weight was reached or for a maximum of four hours. The sample was then subjected to an isothermal (at 25.0° C.) adsorption scan from 40 to 90% RH in steps of 10%. The sample was allowed to equilibrate to an asymptotic weight at each point for a maximum of four hours. Following adsorption, a desorption scan from […] to 5% RH (at 25.0° C.) was run in steps of 10% again allowing a maximum of four hours for equilibration to an asymptotic weight. An adsorption scan was then performed from 0 to 40% RH in steps of 10%. The sample was then dried for no less than two hours at 60.0° C. and the resulting solid analyzed by XRPD.

[4] = Single form slurry experiments of Forms A, D and G; assay type: physicochemical; conditions: ambient temperature, all tested conditions
Experimental: Single form slurry experiments were conducted for Forms A, D and G in three solvents stems, water, 1:2 v/v IPAc/heptane, and toluene to evaluate their physical form stability as a single polymorph (Table 14). Form A remained unchanged at six day time point. […] Form D remained unchanged for three days in water but converted to a mixture A and D at six days. In 1:2 IPAc/heptane and toluene, Form D converted to a mixture of A and D at three days and then Form A at six days. […] Form D is also a metastable polymorph but its conversion to Form A is kinetically slower than Form G. The conversion was the slowest in water partly due to low solubility.
Approximately 10-20 mg of Forms A, D and G were weighed into 8 mL clear vials equipped with magnetic stir bars (Table 14). Water, IPAc/Heptane (1:2 V/V) and toluene were used as the solvent systems for these competitive slurry experiments. Three selected solvents, 1.0 mL, were added to achieve free-flowing slurry and allowed to equilibrate at room temperature. All slurries will be isolated via centrifuge filtration after three day and six days of equilibration.

[5] = Thermal holding (TGA thermal hold) experiments of salts, XRPD of resulting solid; assay type: physicochemical; conditions: for XRPD Post thermal hold / XRPD Post thermal hold, sample left on bench top, 24 hrs: 30-130 °C at 10 °C/min, hold 130 °C/2 min; for XRPD Post thermal hold, sample left on bench top, 24 hrs: then bench top 24 hrs; for XRPD of solid after thermal hold at 130 °C for 2 minutes: held at 130 °C for 2 minutes, cooled to ambient temperature; for XRPD Pre-thermal hold: before TGA thermal hold
Experimental: Salt I, Salt II, Salt III, Salt IV, Salt V, Salt VI, Salt VII, Salt VIII, Salt IX and Salt X were characterized to evaluate its physical form and stability.
In an effort to isolate a high melt crystal form, the material was held at 130° C. for 2 minutes followed by cooling to ambient temperature.
In an effort to isolate a high melt crystal form through a dehydration/recrystallization process, Salt IV was held at 130° C. for 2 minutes followed by cooling to ambient temperature.

[6] = Stability of crystalline materials from selected salts in different humidity (XRPD); assay type: physicochemical; conditions: for XRPD Post humidity exposure: 65% RH, RT; for XRPD Initial: before humidity exposure
Text: Table 49 provides thermal stability data. Table 50 provides TGA thermal data.

[7] = Competitive slurry of calcium, potassium and sodium salts in acetone; assay type: physicochemical; conditions: for Outcome of competitive slurry of salts (in words): acetone (50 μL water added for potassium and sodium salts), room temperature, one and seven days; for XRPD of solids, aliquot time point Day 1 / XRPD of solids, aliquot time point Day 7: RT
Experimental: Calcium, sodium, and potassium salts were used to setup different competitive slurry experiments. For competitive slurry of calcium salts (˜5-6 mg of Salt I and Salt II) were weighed into a 5.0 mL clear vial equipped with magnetic stir bars. These steps were repeated for potassium salt material (˜5-6.5 mg of Salt III) and sodium salt materials (˜2.6-6.4 mg of Salt IV and Salt V). […] All slurries, 400 μL, were filtered through 0.45 micron centrifuge filters after one and seven days of equilibration. The solids were analyzed by XRPD to check for salt conversion (Table 36).

[8] = Thermal holding (TGA thermal hold) experiments of salts, XRPD of resulting solid; assay type: physicochemical
[9] = after thermal stress at 60.0 °C
[10] = parent material before thermal stress
[11] = slurry of potassium or sodium salts in acetone + 0.05 mL water
[12] = competitive slurry of calcium salts (Salt I + Salt II) in acetone 1.0 mL

Structure (SMILES) | XRPD, aliquot time point Day 1 [1] | XRPD, aliquot time point Day 7 [1] | Chemical stability / degradation by HPLC after storage at 60 °C for seven days (in words) [1] | Moisture adsorbed at 60% RH ([3]; DVS, 25.0 °C, 60% RH) [wt %] | Moisture Sorption 90% RH ([3]; DVS, 25.0 °C, 90% RH) [wt %] | XRPD analysis of the post-DVS material [3] | Hygroscopicity (in words) [3] | HPLC (% AUC) [1, 9] [% AUC] | Parent Material HPLC (% AUC) [1, 10] [% AUC] | Physical form / XRPD pattern change after storage at 60 °C for seven days (in words) [1] | XRPD Initial [6] | Moisture Sorption ([3]; 60% RH) | Moisture Sorption ([3]; 90% RH) | Moisture Sorption (hygroscopicity in words) ([3]; DVS) | Outcome of competitive slurry of salts (in words) [7] | XRPD of solids, aliquot time point Day 1 [7, 11] | XRPD of solids, aliquot time point Day 7 [7, 11] | Aqueous Solubility ([2]; room temperature) [µg/mL] | Aqueous Solubility: XRPD (1 day) of solids [2] | hydration property [3] | further results
O=C(O)CNC(=O)c1ncc(-c2cccc(F)c2)cc1O [Form G, 2-(5-(3-fluorophenyl)-3-hydroxypicolinamido)acetic acid] | form mixture; also recorded: A + G | only Form A | chemically stable | 0.4 | 7.1 | afforded Form A | slightly hygroscopic; also recorded: moderately hygroscopic |  |  |  |  |  |  |  |  |  |  |  |  |  | HPLC (% AUC) ([1]; after storage at 60.0 °C): >99.9 % AUC; Parent Material HPLC (% AUC) ([1]; before storage at 60.0 °C): >99.3 % AUC; Solubility ([2]; water, thermodynamic from solid, Solubility, room temperature): 61 µg/mL (≈ 210 µM); Moisture Sorption 60% RH ([3]; DVS, 25.0 °C, 60% RH): 0.4%; Moisture Sorption 90% RH ([3]; DVS, 25.0 °C, 90% RH, listed as G): 7.1 wt %; Weight moisture uptake at 60% RH ([3]; DVS, 60% RH): about 0.4 % weight; Weight moisture uptake at 90% RH ([3]; DVS, 90% RH): about 7.1 % weight; Outcome in the single form and competitive slurry experiments (in words) [4]: converted to Form A
O=C([O-])CNC(=O)c1ncc(-c2cccc(F)c2)cc1O.[K+] [Salt III] | Salt III | Salt III |  | 2.1 | 4.5 |  | moderately hydroscopic; also recorded: moderately hygroscopic | 99.9 | 99.9 | no change in physical form | Salt III + Salt IX | 60% RH: 2.1 wt % | 90% RH: 4.5 wt % | (moderately | most stable polymorphs | Salt III | Salt III |  |  |  | XRPD Post thermal hold [5]: Salt III; XRPD Post thermal hold, sample left on bench top, 24 hrs [5]: Salt III; XRPD of solid after thermal hold at 130 °C for 2 minutes [5]: consistent with Salt III; XRPD Post humidity exposure [6]: Salt III + Salt IX; Solid form by XRPD after 1 day ([2]; slurry in deionized water, room temperature, 1 day (24 hour)): converted from Salt III to Salt IX; Solid form by XRPD after 7 day ([2]; slurry in deionized water, room temperature, 7 days): remained as Salt IX; hydration property ([3]; 60% RH): hemi-(60% RH); hydration property ([3]; 90% RH): to mono-hydrate
O.O=C([O-])CNC(=O)c1ncc(-c2cccc(F)c2)cc1O.[Na+] [Salt IV] | Salt IV | Salt IV | no polymorph conversion or degradation | 6.1 | 6.5 | consistent XRPD pattern as the starting material | moderately hydroscopic; also recorded: moderately hygroscopic | 99.9 | 99.9 | no polymorph conversion or degradation | Salt IV | 60% RH: 6.1 wt % | 90% RH: 6.5 wt % | (moderately |  | Salt V + | Salt V | 19000 | Salt IV + Extra | monohydrate | XRPD Post thermal hold [5]: Salt IV; XRPD Post thermal hold, sample left on bench top, 24 hrs [5]: Salt IV; XRPD Pre-thermal hold [5]: Salt IV; XRPD of solid after thermal hold at 130 °C for 2 minutes [5]: consistent with Salt IV; Form change after slurrying in water for 13 days ([2]; aqueous solubility study, 13 days): no form change; Solubility ([2]; room temperature): 19000 µg/mL; XRPD Post thermal hold ([8]; 180-260 °C at 10 °C/min, hold 260 °C/2 min): Salt VI; XRPD Post thermal hold, sample left on bench top, 24 hrs ([8]; 180-260 °C at 10 °C/min, hold 260 °C/2 min, then bench top 24 hrs): Salt VI; XRPD of solid after thermal hold at 260 °C ([8]; held at 260 °C): conversion to a new salt (Salt VI)
O=C([O-])CNC(=O)c1ncc(-c2cccc(F)c2)cc1O.O=C([O-])CNC(=O)c1ncc(-c2cccc(F)c2)cc1O.[Ca+2] [Salt I] | Salt I | Salt I | chemically stable | 1.0 | 4.1 | consistent XRPD pattern as the starting material | moderately hydroscopic; also recorded: moderately hygroscopic |  |  | no change in physical form |  | 60% RH: 1.0 wt % | 90% RH: 4.1 wt % | (moderately | most stable polymorphs |  |  | 10 | Salt I + Extra |  | Solubility ([2]; room temperature): 10 µg/mL; hydration property ([3]; 60% RH): anhydrate (60%; hydration property ([3]; 90% RH): monohydrate; XRPD of solids, aliquot time point Day 1 [7, 12]: Salt I; XRPD of solids, aliquot time point Day 7 [7, 12]: Salt I
O=C([O-])CNC(=O)c1ncc(-c2cccc(F)c2)cc1O.[Na+] [Salt VI] |  |  |  | 0.3 | 0.7 | consistent XRPD diffractogram | slightly hydroscopic; also recorded: slightly hygroscopic |  |  |  |  | 60% RH: 0.3 wt % | 90% RH: 0.7 wt % |  |  |  |  |  |  | anhydrate | 
O.O=C([O-])CNC(=O)c1ncc(-c2cccc(F)c2)cc1[O-].[Na+].[Na+] [Salt V] | Salt V | Salt V |  | 6.0 | 6.4 | mostly consistent with Salt V with a few missing peaks | moderately hydroscopic; also recorded: moderately hygroscopic | 99.9 | 99.9 |  | Salt V | 60% RH: 6.0 wt % | 90% RH: 6.4 wt % | (moderately | most stable polymorphs | Salt V + | Salt V | 79800 | Salt V + Extra | monohydrate | XRPD Pre-thermal hold [5]: Salt V; XRPD Post humidity exposure [6]: Salt V
